Read-outs that look alike come from different tables or passages of the source.

A word on the Ki: it is the dissociation constant of the complex between target and ligand, obtained from inhibition or displacement. A lower Ki goes with higher affinity. A word on the IC50: it is the concentration needed to halve the response being measured. Low readings indicate inhibition by little substance, high ones a need for much substance.

The nature of data set [1]: Oxidation of boronic acids by hydrogen peroxide, continuous UV-absorbance assay. Format: physicochemical. The conditions noted are these: for kmonoanion (rel) / kmonoanion: experimental; for kmonoanion (rel): relative to PBA; for kmonoanion: second-order rate constant for oxidation of monoanionic tetrahedral state; for kobs: second-order rate constant of oxidation by hydrogen peroxide, physiological pH. The source says: Hydrogen peroxide is known to be the major reactive oxygen species in humans. The oxidation of phenylboronic acids by aqueous hydrogen peroxide yields a phenol and boric acid. […] The oxidation rates were first-order with respect to hydrogen peroxide and each boronic acid. The ensuing second-order rate constants varied with pH and were half-maximal for PBA and 2-HMPBA when pH=pKa. Oxidation rates increase in a pH-dependent manner after and before a pH-independent regime (FIG. 2). This observation is consistent with the existence of two pH-independent rate constants, k1 and k2. Whereas the oxidation rates of PBA and 2-HMPBA at physiological pH are similar to those for biological thiols, the comparative stability of CPBA to oxidation is unexpected (Table 1).
For PBA, 2-HMPBA, and 2-CPBA, the transition from a neutral trigonal state to a monoanionic tetrahedral state occurs when the pH surpasses the pKa (FIG. 3). […] The oxaborolone is differentiated by its existence as a monoanionic tetrahedral species above pH 1. The second-order rate constants for the oxidation for the monoanionic tetrahedral states of PBA, 2-HMPBA, 2-CPBA, and 2-CMPBA ((2-carboxymethyl)-phenylboronic acid) are listed in Table 2.

The next data set deals with T1, pig liver esterase (PLE) (Sus scrofa, UniProt Q29550).
T1 sequence (Q29550 19-566): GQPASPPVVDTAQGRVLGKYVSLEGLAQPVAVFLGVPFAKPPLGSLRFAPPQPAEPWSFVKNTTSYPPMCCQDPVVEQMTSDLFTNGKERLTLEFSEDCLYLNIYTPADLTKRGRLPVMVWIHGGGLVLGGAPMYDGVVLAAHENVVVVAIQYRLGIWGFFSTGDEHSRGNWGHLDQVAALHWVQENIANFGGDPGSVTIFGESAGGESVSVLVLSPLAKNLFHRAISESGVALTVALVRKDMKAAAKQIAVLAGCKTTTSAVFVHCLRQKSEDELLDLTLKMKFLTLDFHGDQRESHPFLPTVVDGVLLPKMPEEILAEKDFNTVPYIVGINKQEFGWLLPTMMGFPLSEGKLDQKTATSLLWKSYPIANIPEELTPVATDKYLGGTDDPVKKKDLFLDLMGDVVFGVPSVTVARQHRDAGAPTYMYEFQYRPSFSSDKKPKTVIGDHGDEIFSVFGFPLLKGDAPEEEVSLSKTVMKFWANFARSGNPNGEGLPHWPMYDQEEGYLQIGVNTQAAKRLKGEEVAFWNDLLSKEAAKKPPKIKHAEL
As to the kind of experiment: Inhibition of pig liver esterase, 4-nitrophenyl acetate substrate. Format: biochemical. The conditions noted are these: pH 7.5, substrate 1.0 mM. As for the experimental part: (§1) 2-CPBA was tested as an inhibitor of pig liver esterase (PLE). This test used 4-nitrophenyl acetate (PNPA) as a substrate. In addition, 2-CPBA was tested as an inhibitor of calf intestinal phosphatase (CIP). This test used 4-nitrophenyl phosphate. Substrates and PLE (15 units/mg) were obtained from Sigma-Aldrich (St. Louis, MO) as dry powders. CIP was obtained from Promega (Fitchburg, WI) as a solution (1 unit/μL). The hydrolysis of the two chromogenic substrates was monitored with a Tecan M1000 plate reader by measuring the absorbance of the 4-nitrophenol product at a wavelength of 405 nm. Assays were performed in a buffer of 20 mM Tris-HCl buffer, pH 7.5, in a clear, flat bottomed 96-well plate in 200-μL volumes. Solutions for CIP assays contained enzyme (0.003 units/μL) and substrate (1.0 mM). Solutions for PLE assays contained enzyme (0.01 units/mL) and substrate (1.0 mM). Both enzymes were assayed for inhibition by adding 2-CPBA (to a concentration of 0.78-100 mM) from a 250 mM stock solution that had its pH adjusted to that of the assay buffer. Initial velocities were measured by calculating ΔA405 nm over time. Velocities were fitted to the 4-parameter logistic equation with Prism software from GraphPad (San Diego, CA). No enzyme and uninhibited velocities were used to constrain the top and bottom parameters. Values of Ki were 80 mM for CIP and 10 mM for PLE.

Data set [2] is described as follows: Affinity for saccharides, 1H-NMR titration. Format: binding. The source says: (§2) PBA and 2-HMPBA are employed often for their ability to form esters with saccharides. As the affinity of boronic acids for saccharides is generally greatest near their pKa value, the low pKa1 of 2-CPBA portends a low affinity. The results of ^1H-NMR titration experiments with D-fructose, D-glucose, and N-acetylneuraminic acid (Neu5Ac) are consistent with this expectation (Table 3).

A further data set deals with T2, ribonuclease A (RNase A) (Bos taurus, UniProt P61823).
T2 sequence (P61823 27-150): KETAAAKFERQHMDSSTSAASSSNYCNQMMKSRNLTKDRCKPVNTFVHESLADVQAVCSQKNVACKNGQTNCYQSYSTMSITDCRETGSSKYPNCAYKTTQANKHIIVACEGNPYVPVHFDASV
As to the kind of experiment: Inhibition of catalysis by ribonuclease A. Format: biochemical. The conditions noted are these: pH 6.0, substrate 6-FAM-(dA)rU(dA)2-6-TAMRA. As for the experimental part: The catalytic activity of ribonuclease A (RNase A) was assayed using 6-FAM-(dA)rU(dA)2-6-TAMRA as a substrate (Kelemen, B. R.; et al. Nucleic Acids Res. 1999, 27, 3696-3701). Assays were performed in 50 mM MES-NaOH buffer, pH 6.0, containing NaCl (100 mM) and RNase A (1 pM) in 200-μL solutions in a black, flat-bottomed 96-well plate and with a Tecan M1000 plate reader. An aqueous solution of 2-CPBA was prepared by dilution from a 500 mM stock that had its pH adjusted to that of the assay buffer. Initial velocities were measured from <5% turnover. Velocities were fitted to the 4-parameter logistic equation using Prism software from GraphPad. Uninhibited velocities were used to constrain the top parameter.

Data set [3] addresses T3, calf intestinal phosphatase (CIP) (Bos taurus, UniProt P19111).
T3 construct: purchased Promega (Fitchburg, WI)
As to the kind of experiment: Inhibition of calf intestinal phosphatase, 4-nitrophenyl phosphate substrate. Format: biochemical. The conditions noted are these: pH 7.5, substrate 1.0 mM. On the procedure:
as §1

A short description of data set [4]: Affinity for saccharides, overall comparison. Format: binding.
From the text: as §2

The conditions of data set [5]: oxidation of biological thiols, physiological pH; marked with footnote a; cited from earlier work.
Another data set has as its target T4, Transthyretin (TTR) (Homo sapiens, UniProt P02766).
T4 construct: made in house
As to the kind of experiment: Inhibition of transthyretin fibril formation, light-scattering at 400 nm. Format: biochemical. The conditions noted are these: pH 4.4, 96-h incubation at 37° C. On the procedure: TTR was expressed and purified as previously reported (Smith, T. P., et al, J. Med. Chem., 2017, 60, 7820-7834). Inhibition of fibril formation was assayed as previously reported (Smith, et al.). Briefly, TTR (7.2 μM) was incubated with varying ratios of kinetic stabilizers (BOL or tafamidis) in 10 mM sodium phosphate buffer, pH 7.6, containing potassium chloride (100 mM) for 30 min at 37° C. Solutions were 2-fold diluted with 100 mM sodium acetate buffer, pH 4.4, containing potassium chloride (100 mM). Quadruplicate samples were plated in a clear 96-well plate. Fibril formation was assessed by measuring light-scattering at 400 nm immediately following acidification and after a 96-h incubation at 37° C. Data were analyzed with equation 1 below by comparing the change in light-scattering over the incubation with a control containing the protein and no inhibitor. The standard deviation of measurements was propagated through calculation in equation 1.

T3 sequence (P19111 20-506): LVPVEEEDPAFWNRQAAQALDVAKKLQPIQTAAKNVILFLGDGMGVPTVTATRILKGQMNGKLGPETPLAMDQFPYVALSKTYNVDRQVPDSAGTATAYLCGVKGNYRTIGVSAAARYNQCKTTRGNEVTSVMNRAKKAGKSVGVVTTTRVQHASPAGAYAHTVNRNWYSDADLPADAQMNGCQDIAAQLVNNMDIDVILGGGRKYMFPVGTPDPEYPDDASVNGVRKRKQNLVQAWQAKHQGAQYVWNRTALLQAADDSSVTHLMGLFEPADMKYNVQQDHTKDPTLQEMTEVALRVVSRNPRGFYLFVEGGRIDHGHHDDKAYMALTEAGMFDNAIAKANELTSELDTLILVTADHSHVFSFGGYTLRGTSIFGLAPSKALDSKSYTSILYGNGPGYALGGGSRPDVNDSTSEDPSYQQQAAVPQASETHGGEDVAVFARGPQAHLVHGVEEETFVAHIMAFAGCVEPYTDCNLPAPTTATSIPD

With `O=C(O)Cc1ccccc1B(O)O` [Compound 2-CMPBA, (2-carboxymethyl)-phenylboronic acid], in data set [1], the “kmonoanion (rel)” value came to 0.00088, the kmonoanion was determined as 0.041 M⁻¹ s⁻¹ and the kobs was 0.041 M⁻¹ s⁻¹.
`O=C(O)c1ccccc1B(O)O` [Compound 2-CPBA, 2-carboxyphenylboronic acid] yielded a Ki at pig liver esterase (PLE) of 10 mM. Further, in data set [2], the “D-fructose, Ka” value stood at 23 ± 2 M⁻¹; the “D-glucose, Ka” value was found to be 1.7 ± 0.1 M⁻¹; the “Neu5Ac, Ka” value was determined as 6.0 ± 0.5 M⁻¹. This compound also returned an IC50 against ribonuclease A (RNase A) of 27 mM. Affinity in data set [3] was put at a Ki of 80 mM. Also, the “loss in affinity for saccharides versus 2-HMPBA” value in data set [4] (versus 2-HMPBA) is on record as “about 13 fold”. In data set [4] (versus PBA), the “loss in affinity for saccharides versus PBA” value is reported as “about 4 fold”. In data set [1], the “kmonoanion (rel)” value amounted to 0.0000035, the kmonoanion was 0.00016 M⁻¹ s⁻¹ and the kobs is 0.00015 M⁻¹ s⁻¹.
With `OCc1ccccc1B(O)O` [Compound 2-HMPBA, (2-hydroxymethyl)phenylboronic acid], in data set [2], the “D-fructose, Ka” value turned out to be 336 ± 43 M⁻¹; the “D-glucose, Ka” value came to 28 ± 4 M⁻¹; the “Neu5Ac, Ka” value was determined as 43 ± 5 M⁻¹. Moreover, in data set [1], the “kmonoanion (rel)” value was 0.10, the kmonoanion came out at 4.8 M⁻¹ s⁻¹ and the kobs worked out at 2.4 M⁻¹ s⁻¹.
As to `N[C@@H](CS)C(=O)O` [Cysteine], the kobs in data set [5] is 2.9 M⁻¹ s⁻¹.
Regarding `N[C@@H](CCC(=O)N[C@@H](CS)C(=O)NCC(=O)O)C(=O)O` [Glutathione], the kobs in data set [5] was 0.89 M⁻¹ s⁻¹.
With `CC(=O)N[C@@H](CS)C(=O)O` [N-Acetylcysteine], the kobs in data set [5] is 0.16 M⁻¹ s⁻¹.
In the case of `OB(O)c1ccccc1` [PBA, phenylboronic acid], in data set [2], the “D-fructose, Ka” value is 128 ± 20 M⁻¹; the “D-glucose, Ka” value amounted to 5 ± 1 M⁻¹; the “Neu5Ac, Ka” value amounted to 13 ± 1 M⁻¹. Moreover, in data set [1], the “kmonoanion (rel)” value is reported as 1, the kmonoanion came to 46 M⁻¹ s⁻¹ and the kobs turned out to be 2.4 M⁻¹ s⁻¹.
`O=C(O)c1ccc2nc(-c3cc(Cl)cc(Cl)c3)oc2c1` [tafamidis]: the “% Fibril formation” value is 29 ± 5% on Transthyretin (TTR) (TTR:Compound ratio 1:1) and 1 ± 5% at Transthyretin (TTR) (TTR:Compound ratio 1:2).

The values above are taken from patent publication US12065456B2, “Boron-containing pharmacophore” (MASSACHUSETTS INSTITUTE OF TECHNOLOGY, priority 2019, dated 2024).
